In US5691344A, “Vasoconstrictive substituted dihydropyranopyridines” (Janssen Pharmaceutica, N.V., priority 1993, dated 1997) one finds EC50 data, which are given here for five compounds.

The structures appear in SMILES notation. Where a name gives a salt, the structure may show the parent alone.

The test system of the test is basilar arteries. In words: Constriction of isolated basilar artery segments of pigs (serotonin-like response, % of response to serotonin). Conditions: Sus scrofa; constrictive response expressed as percentage of previous response to serotonin (3×10^-7 M); Krebs-Henseleit solution, 37° C.; read-out: IC50 (the source's name). The text has this:
The compounds of formula (I), the pharmaceutically acceptable acid-additionsalts and stereochemically isomeric forms thereof have interesting pharmacological properties: they show 5HT1-like agonistic activity. The compounds of the present invention have a remarkable vasoconstrictor activity. They are useful to prevent and treat conditions which are related to vasodilatation. For instance, they are useful in the treatment of conditions characterized by or associated with cephalic pain, e.g. cluster headache and headache associated with vascular disorders, especially migraine. These compounds are also useful in the treatment of venous insufficiency and in the treatment of conditions associated with hypotension. The vasoconstrictor activity of the compounds of formula (I) can be determined using an in vitro-test as is described in "Instantaneous changes of alpha-adrenoreceptor affinity caused by moderate cooling in canine cutaneous veins" in the American Journal of Physiology 234(4), H330-H337, 1978; or in the test described in the pharmacological example, wherein the serotonin-like response of the compounds of the present invention was tested on the basilar arteries of pigs.
Segments of basilar arteries taken from pigs (anaesthetised with sodium pentobarbital) were mounted for recording of isometric tension in organ baths. The preparations were bathed in Krebs--Henseleit solution. The solution was kept at 37° C. and gassed with a mixture of 95% O2 -5% CO2. The preparations were stretched until a stable basal tension of 2 grams was obtained.
The preparations were made to constrict with serotonin (3×10^-7 M). The response to the addition of serotonin was measured and subsequently the serotonin was washed away. This procedure was repeated until stable responses were obtained. Subsequently the test compound was administered to the organ bath and the constriction of the preparation was measured. This constrictive response was expressed as a percentage of the response to serotonin as measured previously.

With `c1cnc(NCCCNCC2CCc3cccnc3O2)nc1` (racemic) [Co. No. 1, (±)-N-[(3,4-dihydro-2H-pyrano[2,3-b]-pyridin-2-yl)methyl]-N'-2-pyrimidinyl-1,3-propanediamine trihydrochloride. 2-propanolate(1:1). monohydrate], the EC50 was found to be 71 nM.
As to `CSc1nccc(NCCCNCC2CCc3cccnc3O2)n1` (racemic) [Co. No. 5], the EC50 worked out at 260 nM.
The value for `c1cnc2c(c1)CCC(CNCCCNC1=NCCCN1)O2` (racemic) [Co. No. 2, N-[(3,4-dihydro-2H-pyrano[2,3-b]pyridin-2-yl)methyl]-N'-(1,4,5,6-tetrahydro-2-pyrimidinyl)-1,3-propanediamine dihydrochloride. 2-propanolate (2:1). monohydrate] was 130 nM; that for `[O-][n+]1cccc2c1OC(CNCCCNc1ncccn1)CC2` (racemic) [Co. No. 3, (±)-N-(3,4-dihydro-2H-pyrano[2,3-b]pyridon-2-yl)methyl]-N'-2-pyrimidinyl-1,3-propanediamine, N-oxide ethanedioate (2:1). monohydrate] was 340 nM.
The value for `c1ccc(NCCCNCC2CCc3cccnc3O2)nc1` (racemic) [Co. No. 6] was 120 nM.
